Results filed as inconclusive are left out.
Test system: U2OS PGC1a acetylation AlphaLISA, overnight
Assay: PGC1a acetylation increase, cellular AlphaLISA – cell-based, cherry-picked samples, set 6, dose response (AID 720513);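 further: cells made to overexpress flag tagged PGC1a plus GCN5 acetyltransferase by viral infection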

| SMILES | AC40 [µM] |
| --- | --- |
| Cc1nc(N2CCN(S(=O)(=O)c3ccc(F)cc3)CC2)c2c(-c3cccs3)csc2n1 | 3.27 |
| CC(C)(C)n1nnnc1CN(Cc1ccc(F)cc1)Cc1ccco1 | 1.73 |
| COc1ccc(S(=O)(=O)Nc2ccc3c(c2)C(=O)N([C@@H](C)CO)C[C@@H](C)[C@H](CN(C)S(=O)(=O)c2ccc(Cl)cc2)OCCCC[C@H](C)O3)cc1 | 9.66 |
| O=C(NN1c2ccccc2CCc2ccccc21)c1ccccc1Br | 4.84 |
| COC(=O)c1ccc(NC(=O)C23CC4CC(C2)CC(n2cnc(Cl)n2)(C4)C3)cc1 | 1.82 |
| CS(=O)(=O)N(CC(=O)N1CCN(c2ccccc2)CC1)c1cccc(Br)c1 | 17.8 |
| N#Cc1ccccc1S(=O)(=O)N1CCN(Cc2cc3c(cc2Br)OCCO3)CC1 | 0.934 |
| O=C(NCCC(c1ccccc1)c1ccccc1)c1ccc(Br)o1 | 12.9 |
| CCOC(=O)C(C)n1cnc2c(nnn2-c2ccc(C)cc2)c1=O (centres undefined) | 2.7 |
| Cc1ccc(NC(=O)CN(C)S(=O)(=O)c2cccs2)c(Br)c1 | 14.7 |
| CC/C(=C(\c1ccc(O)cc1)c1ccc(OCCN(C)C)cc1)c1ccccc1 | 2.41 |
| O=S(=O)(c1ccc(Cl)cc1)N1[C@@H]2CNC[C@H]1C2c1ccc(-c2cccc(F)c2)cc1 (some centres undefined) | < 2.6 |
| CCN(CC)CCNC(=O)c1ccc2c(c1NCCO)C(=O)c1ccccc1C2=O | 14.6 |
| Fc1ccc(CN(Cc2ccccc2)C(c2cccs2)c2nnnn2C2CCCCC2)cc1 (centres undefined) | 12.7 |
| Cc1ccccc1Cn1cc(NC(=O)c2cc(-c3cccs3)on2)cn1 | 1.32 |
| C[C@@H]1CN([C@@H](C)CO)C(=O)c2c(c3ccccc3n2C)-c2ccccc2CO[C@@H]1CN(C)C(=O)c1ccc(F)cc1 | 4.7 |
| Cc1csc(NC(=O)NC2(C(F)(F)F)Oc3ccccc3O2)n1 | 6.24 |
| O=C(NCc1cccs1)C1Cc2c(-c3ccc(Cl)cc3)ccnc2O1 (centres undefined) | 8.86 |
| CN1CCN(c2ccc(CNC(=O)c3ccc(-c4ccnn4C)c4ccoc34)cc2)CC1 | 9.27 |
| Cc1cc(S(=O)(=O)c2ccc([N+](=O)[O-])cn2)ccc1Br | 0.421 |

| SMILES | AC40 [µM] |
| --- | --- |
| CC(=O)c1cccc(N(C(=O)Cn2nnc3ccccc32)C(C(=O)NCc2ccccc2)c2ccccn2)c1 (centres undefined) | 10.5 |
| O=C(CCCn1c(=O)[nH]c2cc(Cl)ccc2c1=O)NCCC1=CCCCC1 | 0.371 |
| C[C@@H]1CN([C@H](C)CO)C(=O)c2c(c3ccccc3n2C)-c2ccccc2CO[C@@H]1CN(C)C(=O)c1ccccc1 | 5.94 |
| Cc1ccc(S(=O)(=O)N2C[C@@H]3N[C@H](C2)[C@@H]3c2ccc(-c3cccc(C)c3)cc2)cc1 | 5.18 |
| CCOC(=O)C1=CC[C@@H](c2ccc(F)cc2)N(S(=O)(=O)c2ccc(C)cc2)[C@H]1c1ccccc1 | 3.22 |
| CCOC(=O)c1[nH]c(C)c(C(=O)Nc2cc(OC)ccc2OC)c1C | 13 |
| CCOC(=O)c1c(C)n(C)c2ccc(OCC(O)Cn3nc(C)c(Br)c3C)cc12 (centres undefined) | 0.556 |
| COCCN(C)Cc1nc(C(c2ccccc2)c2ccccc2)no1 | 9.12 |
| Cc1ccc(CN(CC(O)COc2cccc3[nH]cc(C)c23)C(C)(C)C)cc1 (centres undefined) | 2.49 |
| O=C(NCc1cccs1)c1ccc(Cl)c(S(=O)(=O)N2CCCC2)c1 | 3.54 |
| C[C@@H](c1ccccc1)N1Cc2ccccc2Oc2cc(Br)ccc2S1(=O)=O | 14.3 |
| CCOc1ccc(-c2nnn(CC#N)n2)cc1OC | 1.96 |
| NC(=O)Cn1cc(C(=O)c2cccs2)c2ccccc21 | 3.92 |
| CO[C@@H](C(=O)N(C)C[C@H]1OCc2ccccc2-c2c(n(C)c3ccccc23)C(=O)N([C@H](C)CO)C[C@H]1C)c1ccccc1 | 8.25 |
| Cc1cccc(-c2ccc3[nH]c4c(c3c2)CCN2C[C@@H]([C@H](C)O)[C@@H](N(C)C(=O)NC3CCCCC3)C[C@@H]42)c1 | 13.7 |
| CCSc1ccc(NC(=O)c2cccnc2)cc1 | 1.65 |
| CC12CCC(C1)C(C)(C)C2NS(=O)(=O)c1ccc(F)cc1 (centres undefined) | 5.98 |
| C[C@@H]1CN([C@H](C)CO)C(=O)c2c(c3ccccc3n2C)-c2ccccc2CO[C@@H]1CN(C)C(=O)c1ccc(F)cc1 | 6.65 |
| O=C(c1ccc(NC(=O)C2(c3ccccc3)CCOCC2)cc1)N1CCOCC1 | 16.6 |

Source: PubChem BioAssay AID720513 (Broad Institute, 2013)
